Reference: PubChem BioAssay AID1963835 (Molecular Pharmacology Branch, DTP, NCI, 2024)
pIC50: −log10 of the molar value.

Tested on: 699152-130-R-J1-PDC complex spheroid viability
Test: Anticancer human tumor 699152-130-R-J1-PDC patient-derived pancreatic carcinoma cell line growth inhibition [POLQ]
Details: for pIC50: curve of first compound; for viability, T/C: stronger effect = lower value
Outline: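 Complex spheroid viability model combining PDC tumour cells with endothelial (HUVEC) and MSC stromal cells. Novobiocin, ART-558 or RP6685 were tested singly and in combination with standard and investigational anticancer drugs. Each was titrated in half-log steps from near clinical Cmax, or from 10 microM where Cmax was unknown.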

[1] = second compound 0.0316 µM, first compound 0.0316 µM
[2] = second compound 0.0316 µM, first compound 0.1 µM
[3] = second compound 0.0316 µM, first compound 0.316 µM
[4] = second compound 0.0316 µM, first compound 1 µM
[5] = second compound 0.0316 µM, first compound 3.16 µM
[6] = second compound 0.0316 µM, first compound 10 µM
[7] = second compound 0.1 µM, first compound 0.0316 µM
[8] = second compound 0.1 µM, first compound 0.1 µM
[9] = second compound 0.1 µM, first compound 0.316 µM
[10] = second compound 0.1 µM, first compound 1 µM
[11] = second compound 0.1 µM, first compound 3.16 µM
[12] = second compound 0.1 µM, first compound 10 µM
[13] = second compound 0.316 µM, first compound 0.0316 µM
[14] = second compound 0.316 µM, first compound 0.1 µM
[15] = second compound 0.316 µM, first compound 0.316 µM
[16] = second compound 0.316 µM, first compound 1 µM
[17] = second compound 0.316 µM, first compound 3.16 µM
[18] = second compound 0.316 µM, first compound 10 µM
[19] = second compound 1 µM, first compound 0.0316 µM
[20] = second compound 1 µM, first compound 0.1 µM
[21] = second compound 1 µM, first compound 0.316 µM
[22] = second compound 1 µM, first compound 1 µM
[23] = second compound 1 µM, first compound 3.16 µM
[24] = second compound 1 µM, first compound 10 µM
[25] = second compound 3.16 µM, first compound 0.0316 µM
[26] = second compound 3.16 µM, first compound 0.1 µM
[27] = second compound 3.16 µM, first compound 0.316 µM
[28] = second compound 3.16 µM, first compound 1 µM
[29] = second compound 3.16 µM, first compound 3.16 µM
[30] = second compound 3.16 µM, first compound 10 µM
[31] = second compound 10 µM, first compound 0.0316 µM
[32] = second compound 10 µM, first compound 0.1 µM
[33] = second compound 10 µM, first compound 0.316 µM
[34] = second compound 10 µM, first compound 1 µM
[35] = second compound 10 µM, first compound 3.16 µM
[36] = second compound 10 µM, first compound 10 µM
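Further: spheroids exposed to agents for 7 days before viability reading.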
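Wherever viability, T/C is given: percent of DMSO vehicle control viability so 100% = vehicle and 0% = no viable signal.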

COc1cc(C2c3cc4c(cc3C(OC3OC5COC(C)OC5C(O)C3O)C3COC(=O)C23)OCO4)cc(OC)c1O (stereo unspecified) + Cc1cccc(N(C)C(=O)C2C(O)CCN2c2nc(C)cc(C(F)(F)F)c2C#N)c1
pIC50 (second compound 0.0316 µM): 5.17 | pIC50 (second compound 0.1 µM): < 5.00 | pIC50 (second compound 0.316 µM): 5.12 | pIC50 (second compound 1 µM): < 5.00 | pIC50 (second compound 3.16 µM): < 5.00 | pIC50 (second compound 10 µM): < 5.00 | viability, T/C [1]: 111% | viability, T/C [2]: 108% | viability, T/C [3]: 76.4% | viability, T/C [4]: 72.2% | viability, T/C [5]: 52.5% | viability, T/C [6]: 47.6% | viability, T/C [7]: 101% | viability, T/C [8]: 84.6% | viability, T/C [9]: 72.9% | viability, T/C [10]: 72.8% | viability, T/C [11]: 55% | viability, T/C [12]: 50.8% | viability, T/C [13]: 102% | viability, T/C [14]: 96.3% | viability, T/C [15]: 83.4% | viability, T/C [16]: 74.2% | viability, T/C [17]: 58.9% | viability, T/C [18]: 47.2% | viability, T/C [19]: 112% | viability, T/C [20]: 86.1% | viability, T/C [21]: 81.9% | viability, T/C [22]: 74.9% | viability, T/C [23]: 63.7% | viability, T/C [24]: 47.3% | viability, T/C [25]: 98% | viability, T/C [26]: 101% | viability, T/C [27]: 71.8% | viability, T/C [28]: 74.4% | viability, T/C [29]: 62.2% | viability, T/C [30]: 51.2% | viability, T/C [31]: 101% | viability, T/C [32]: 77.7% | viability, T/C [33]: 70.6% | viability, T/C [34]: 75.9% | viability, T/C [35]: 71.1% | viability, T/C [36]: 55.9%

COc1cccc2c1C(=O)c1c(O)c3c(c(O)c1C2=O)CC(O)(C(=O)CO)CC3OC1CC(N)C(O)C(C)O1 (stereo unspecified) + Cc1cccc(N(C)C(=O)C2C(O)CCN2c2nc(C)cc(C(F)(F)F)c2C#N)c1
pIC50 (second compound 0.0316 µM): 6.65 | pIC50 (second compound 0.1 µM): 6.61 | pIC50 (second compound 0.316 µM): 6.55 | pIC50 (second compound 1 µM): 6.56 | pIC50 (second compound 3.16 µM): 6.56 | pIC50 (second compound 10 µM): 6.59 | viability, T/C [1]: 102% | viability, T/C [2]: 59% | viability, T/C [3]: 47.5% | viability, T/C [4]: 34% | viability, T/C [5]: 3.59% | viability, T/C [6]: 10.4% | viability, T/C [7]: 81.1% | viability, T/C [8]: 61.3% | viability, T/C [9]: 47% | viability, T/C [10]: 31.3% | viability, T/C [11]: 3.36% | viability, T/C [12]: 8.95% | viability, T/C [13]: 85.7% | viability, T/C [14]: 66% | viability, T/C [15]: 49.5% | viability, T/C [16]: 29.6% | viability, T/C [17]: 3.68% | viability, T/C [18]: 10.9% | viability, T/C [19]: 81.9% | viability, T/C [20]: 68.5% | viability, T/C [21]: 46.8% | viability, T/C [22]: 28.7% | viability, T/C [23]: 4.78% | viability, T/C [24]: 12.1% | viability, T/C [25]: 85% | viability, T/C [26]: 60.7% | viability, T/C [27]: 55.2% | viability, T/C [28]: 20% | viability, T/C [29]: 6.82% | viability, T/C [30]: 10.3% | viability, T/C [31]: 84.4% | viability, T/C [32]: 60.2% | viability, T/C [33]: 53.2% | viability, T/C [34]: 12% | viability, T/C [35]: 7.55% | viability, T/C [36]: 10.8%

Nc1ccn(C2OC(CO)C(O)C2(F)F)c(=O)n1 (stereo unspecified) + Cc1cccc(N(C)C(=O)C2C(O)CCN2c2nc(C)cc(C(F)(F)F)c2C#N)c1
pIC50 (second compound 0.0316 µM): 6.02 | pIC50 (second compound 0.1 µM): 6.39 | pIC50 (second compound 0.316 µM): 6.33 | pIC50 (second compound 1 µM): 5.91 | pIC50 (second compound 3.16 µM): 5.69 | pIC50 (second compound 10 µM): 5.48 | viability, T/C [1]: 70.1% | viability, T/C [2]: 57% | viability, T/C [3]: 53.7% | viability, T/C [4]: 52.5% | viability, T/C [5]: 48% | viability, T/C [6]: 39% | viability, T/C [7]: 75% | viability, T/C [8]: 58.9% | viability, T/C [9]: 50.3% | viability, T/C [10]: 48.8% | viability, T/C [11]: 45% | viability, T/C [12]: 44.7% | viability, T/C [13]: 75% | viability, T/C [14]: 62.3% | viability, T/C [15]: 49.6% | viability, T/C [16]: 44.6% | viability, T/C [17]: 51.6% | viability, T/C [18]: 37.9% | viability, T/C [19]: 74% | viability, T/C [20]: 55.3% | viability, T/C [21]: 60.9% | viability, T/C [22]: 52.6% | viability, T/C [23]: 44.8% | viability, T/C [24]: 42.1% | viability, T/C [25]: 72.9% | viability, T/C [26]: 63.3% | viability, T/C [27]: 57.9% | viability, T/C [28]: 55% | viability, T/C [29]: 45.6% | viability, T/C [30]: 46.5% | viability, T/C [31]: 76.4% | viability, T/C [32]: 63.5% | viability, T/C [33]: 56.6% | viability, T/C [34]: 59.5% | viability, T/C [35]: 53.6% | viability, T/C [36]: 42.6%
